Results: PubChem BioAssay (NCI)
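Step 1: Grow cells in 96-well plates. Step 2: Expose to compound for 48 hours at 5 concentrations. Step 3: Interpolate endpoints linearly; if unreached, use highest concentration. TGI: total growth inhibition.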

What was measured:
Experiment in all cases: growth of human tumour cells (NCI), 48 h
NCI-H460 lung = tested on: NCI-H460 lung
HCC-2998 colon = tested on: HCC-2998 colon
OVCAR-8 ovarian = tested on: OVCAR-8 ovarian
UACC-62 melanoma = tested on: UACC-62 melanoma
T-47D breast = tested on: T-47D breast
EKVX NSCLC = tested on: EKVX NSCLC
SK-MEL-2 melanoma = tested on: SK-MEL-2 melanoma
MDA-MB-231 breast = tested on: MDA-MB-231 breast
A549 NSCLC = tested on: A549 NSCLC
U251 CNS = tested on: U251 CNS
NCI-H522 lung = tested on: NCI-H522 lung
SNB-19 CNS = tested on: SNB-19 CNS
DU-145 prostate = tested on: DU-145 prostate
NCI-H23 lung = tested on: NCI-H23 lung
SK-MEL-5 melanoma = tested on: SK-MEL-5 melanoma
SF-539 CNS = tested on: SF-539 CNS
CCRF-CEM leukemia = tested on: CCRF-CEM leukemia
OVCAR-5 ovarian = tested on: OVCAR-5 ovarian
MALME-3M melanoma = tested on: MALME-3M melanoma
MOLT-4 leukemia = tested on: MOLT-4 leukemia
HCT-116 colon = tested on: HCT-116 colon
HT29 colon = tested on: HT29 colon
NCI/ADR-RES ovarian = tested on: NCI/ADR-RES ovarian
HCT-15 colon = tested on: HCT-15 colon
COLO 205 colon = tested on: COLO 205 colon
SF-268 CNS = tested on: SF-268 CNS
HOP-92 NSCLC = tested on: HOP-92 NSCLC
SK-MEL-28 melanoma = tested on: SK-MEL-28 melanoma
SF-295 CNS = tested on: SF-295 CNS
UACC-257 melanoma = tested on: UACC-257 melanoma
RPMI-8226 leukemia = tested on: RPMI-8226 leukemia
SR leukemia = tested on: SR leukemia
SNB-75 CNS = tested on: SNB-75 CNS
TK-10 renal = tested on: TK-10 renal
786-0 renal = tested on: 786-0 renal
CAKI-1 renal = tested on: CAKI-1 renal
IGROV1 ovarian = tested on: IGROV1 ovarian
M14 melanoma = tested on: M14 melanoma
OVCAR-3 ovarian = tested on: OVCAR-3 ovarian
ACHN renal = tested on: ACHN renal
KM12 colon = tested on: KM12 colon
MCF7 breast = tested on: MCF7 breast
HL-60(TB) leukemia = tested on: HL-60(TB) leukemia
MDA-MB-435 = tested on: MDA-MB-435
SN12C renal = tested on: SN12C renal
BT-549 breast = tested on: BT-549 breast
SK-OV-3 ovarian = tested on: SK-OV-3 ovarian
HS 578T breast = tested on: HS 578T breast
SW-620 colon = tested on: SW-620 colon
LOX IMVI melanoma = tested on: LOX IMVI melanoma
OVCAR-4 ovarian = tested on: OVCAR-4 ovarian
UO-31 renal = tested on: UO-31 renal
HOP-62 NSCLC = tested on: HOP-62 NSCLC
PC-3 prostate = tested on: PC-3 prostate
K-562 leukemia = tested on: K-562 leukemia
MDA-N = tested on: MDA-N
NCI-H226 lung = tested on: NCI-H226 lung
A498 renal = tested on: A498 renal
RXF 393 renal = tested on: RXF 393 renal

Measured: TGI

O=CNc1ccc(S(=O)(=O)c2ccc(NC=O)cc2)cc1
> 100 µM: NCI-H460 lung | HCC-2998 colon | OVCAR-8 ovarian | UACC-62 melanoma | T-47D breast | EKVX NSCLC | SK-MEL-2 melanoma | MDA-MB-231 breast | A549 NSCLC | U251 CNS | NCI-H522 lung | SNB-19 CNS | DU-145 prostate | NCI-H23 lung | SK-MEL-5 melanoma | SF-539 CNS | CCRF-CEM leukemia | OVCAR-5 ovarian | MALME-3M melanoma | MOLT-4 leukemia | HCT-116 colon | HT29 colon | NCI/ADR-RES ovarian | HCT-15 colon | COLO 205 colon | SF-268 CNS | HOP-92 NSCLC | SK-MEL-28 melanoma | SF-295 CNS | UACC-257 melanoma | RPMI-8226 leukemia | SR leukemia | SNB-75 CNS | TK-10 renal | 786-0 renal | CAKI-1 renal | IGROV1 ovarian | M14 melanoma | OVCAR-3 ovarian | ACHN renal | KM12 colon | MCF7 breast | HL-60(TB) leukemia | MDA-MB-435 | SN12C renal | BT-549 breast | SK-OV-3 ovarian | HS 578T breast | SW-620 colon | LOX IMVI melanoma | OVCAR-4 ovarian | UO-31 renal | HOP-62 NSCLC | PC-3 prostate | K-562 leukemia | MDA-N

CSc1nn(C)cc2nc(C)nc1-2
> 100 µM: NCI-H460 lung | OVCAR-8 ovarian | UACC-62 melanoma | T-47D breast | EKVX NSCLC | SK-MEL-2 melanoma | MDA-MB-231 breast | NCI-H226 lung | A549 NSCLC | U251 CNS | SNB-19 CNS | DU-145 prostate | NCI-H23 lung | SK-MEL-5 melanoma | SF-539 CNS | CCRF-CEM leukemia | A498 renal | OVCAR-5 ovarian | MOLT-4 leukemia | HCT-116 colon | HT29 colon | RXF 393 renal | NCI/ADR-RES ovarian | HCT-15 colon | COLO 205 colon | SF-268 CNS | SK-MEL-28 melanoma | SF-295 CNS | UACC-257 melanoma | RPMI-8226 leukemia | SR leukemia | SNB-75 CNS | TK-10 renal | 786-0 renal | CAKI-1 renal | IGROV1 ovarian | M14 melanoma | OVCAR-3 ovarian | ACHN renal | KM12 colon | MCF7 breast | HL-60(TB) leukemia | MDA-MB-435 | SN12C renal | BT-549 breast | HS 578T breast | SW-620 colon | UO-31 renal | HOP-62 NSCLC | PC-3 prostate | K-562 leukemia | MDA-N
